Patent publication US12492173B2, “Herbicidal substituted N-tetrazolyl aryl carboxamides” (Bayer Aktiengesellschaft, priority 2019, dated 2025)

How the values were obtained:
Type in all cases: in vivo
Pharbitis purpurea = assay: Pre-emergence herbicidal action, PHBPU; settings: for herbicidal activity PHBPU: dosage 320 g/ha, scored visually after 3 weeks vs untreated controls (100% = plants have died)
Method in brief: (§1)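 Seeds were covered with sandy loam soil, then received a pre-emergence surface spray of the WP- or EC-formulated compound. After 3 weeks under good greenhouse growth conditions, damage was scored visually in percent.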

Hordeum murinum = assay: Pre-emergence herbicidal action, HORMU; settings: dosage 320 g/ha, scored visually after 3 weeks vs untreated controls (100% = plants have died)
Method in brief: as §1

Avena fatua = assay: Post-emergence herbicidal action, AVEFA; set-up: key: % herbicidal action vs untreated; 100 = plants died, 0 = like control
Method in brief: (§2)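 Sandy loam, greenhouse; one-leaf stage (2–3 wk after sowing); foliar spray of WP or EC, 600–800 l/ha water + 0.2% wetter; visual rating at ~3 wk vs untreated, % effect.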

Cyperus esculentus = assay: Post-emergence herbicidal action, CYPES; set-up: key: % herbicidal action vs untreated; 100 = plants died, 0 = like control
Method in brief: as §2

Stellaria media = assay: Pre-emergence herbicidal action, STEME; set-up: key to Herbicidal action against STEME: % activity: 100 = plants have died, 0 = like control plants; settings: for herbicidal activity STEME: dosage 320 g/ha, scored visually after 3 weeks vs untreated controls (100% = plants have died)
Method in brief: as §1

Abutilon theophrasti = assay: Post-emergence herbicidal action, ABUTH; set-up: key: % herbicidal action vs untreated; 100 = plants died, 0 = like control
Method in brief: as §2

[1] = comparative experiment, 20 g of a.i./ha

Cn1nnnc1NC(=O)c1ccc(C(F)(F)F)c(C[S+]([O-])C2CC2)c1Cl (racemic) [Example 1-303]
herbicidal activity PHBPU (Pharbitis purpurea): 100%
herbicidal activity HORMU (Hordeum murinum): 100%
herbicidal action AVEFA (Avena fatua; post-emergence, dosage 80 g/ha): 100%
herbicidal action CYPES (Cyperus esculentus; post-emergence, dosage 80 g/ha): 80%
herbicidal activity STEME (Stellaria media): 100%
herbicidal action ABUTH (Abutilon theophrasti; post-emergence, dosage 80 g/ha): 100%

CSc1c(C(=O)Nc2nnnn2C)ccc(C(F)(F)F)c1C[S+](C)[O-] (stereo not shown) [Example 1-162]
Herbicidal action against PHBPU (Pharbitis purpurea; [1]): 60
herbicidal activity PHBPU (Pharbitis purpurea): 90%
herbicidal activity HORMU (Hordeum murinum): 80%
herbicidal action AVEFA (Avena fatua; post-emergence, dosage 80 g/ha): 100%
herbicidal action CYPES (Cyperus esculentus; post-emergence, dosage 80 g/ha): 80%
herbicidal activity STEME (Stellaria media): 100%
herbicidal action ABUTH (Abutilon theophrasti; post-emergence, dosage 80 g/ha): 100%

Cn1nnnc1NC(=O)c1ccc(C(F)(F)F)c(CSC2CC2)c1Cl [Example 1-302]
herbicidal activity PHBPU (Pharbitis purpurea): 100%
herbicidal activity HORMU (Hordeum murinum): 100%
herbicidal action AVEFA (Avena fatua; post-emergence, dosage 80 g/ha): 100%
herbicidal action CYPES (Cyperus esculentus; post-emergence, dosage 80 g/ha): 80%
herbicidal activity STEME (Stellaria media): 100%
herbicidal action ABUTH (Abutilon theophrasti; post-emergence, dosage 80 g/ha): 100%

Cn1nnnc1NC(=O)c1ccc(C(F)(F)F)c(CS(=O)(=O)C2CC2)c1Cl [Example 1-304]
herbicidal activity PHBPU (Pharbitis purpurea): 100%
herbicidal activity HORMU (Hordeum murinum): 100%
herbicidal action AVEFA (Avena fatua; post-emergence, dosage 80 g/ha): 100%
herbicidal action CYPES (Cyperus esculentus; post-emergence, dosage 80 g/ha): 90%
herbicidal activity STEME (Stellaria media): 100%
herbicidal action ABUTH (Abutilon theophrasti; post-emergence, dosage 80 g/ha): 100%

COCCSCc1c(C(F)(F)F)ccc(C(=O)Nc2nnnn2C)c1Cl [Example 1-305]
herbicidal activity PHBPU (Pharbitis purpurea): 90%
herbicidal activity HORMU (Hordeum murinum): 100%
herbicidal action AVEFA (Avena fatua; post-emergence, dosage 80 g/ha): 100%
herbicidal action CYPES (Cyperus esculentus; post-emergence, dosage 80 g/ha): 90%
herbicidal activity STEME (Stellaria media): 100%
herbicidal action ABUTH (Abutilon theophrasti; post-emergence, dosage 80 g/ha): 100%

Cn1nnnc1NC(=O)c1ccc(C(F)(F)F)c(CSCC(F)(F)F)c1Cl [Example 1-311]
herbicidal activity PHBPU (Pharbitis purpurea): 100%
herbicidal activity HORMU (Hordeum murinum): 100%
herbicidal action AVEFA (Avena fatua; Dosage 80 g/ha): 100
herbicidal action CYPES (Cyperus esculentus; Dosage 80 g/ha): 100
herbicidal activity STEME (Stellaria media): 100%
herbicidal action ABUTH (Abutilon theophrasti; Dosage 80 g/ha): 100

Cn1nnnc1NC(=O)c1ccc(C(F)(F)F)c(CSCC2CC2)c1Cl [Example 1-314]
herbicidal activity PHBPU (Pharbitis purpurea): 90%
herbicidal activity HORMU (Hordeum murinum): 100%
herbicidal action AVEFA (Avena fatua; post-emergence, dosage 80 g/ha): 100%
herbicidal action CYPES (Cyperus esculentus; post-emergence, dosage 80 g/ha): 80%
herbicidal activity STEME (Stellaria media): 90%
herbicidal action ABUTH (Abutilon theophrasti; post-emergence, dosage 80 g/ha): 100%

CSCc1c(I)ccc(C(=O)Nc2nnnn2C)c1Cl [Example 1-362]
herbicidal activity PHBPU (Pharbitis purpurea): 80%
herbicidal activity HORMU (Hordeum murinum): 80%
herbicidal action AVEFA (Avena fatua; post-emergence, dosage 80 g/ha): 100%
Herbicidal action against CYPES (Cyperus esculentus; comparative experiment, post-emergence, 5 g of a.i./ha): 30
Herbicidal action against STEME (Stellaria media; [1]): 90
herbicidal activity STEME (Stellaria media): 100%
herbicidal action ABUTH (Abutilon theophrasti; post-emergence, dosage 80 g/ha): 100%

CCn1nnnc1NC(=O)c1ccc(C(F)(F)F)c(CSCCOC)c1Cl [Example 2-305]
herbicidal activity PHBPU (Pharbitis purpurea): 100%
herbicidal activity HORMU (Hordeum murinum): 100%
herbicidal action AVEFA (Avena fatua; post-emergence, dosage 80 g/ha): 80%
herbicidal action CYPES (Cyperus esculentus; post-emergence, dosage 80 g/ha): 100%
herbicidal activity STEME (Stellaria media): 100%
herbicidal action ABUTH (Abutilon theophrasti; post-emergence, dosage 80 g/ha): 100%

CCn1nnnc1NC(=O)c1ccc(C(F)F)c(C[S+]([O-])CC)c1Cl (stereo not shown) [Example 2-324]
herbicidal activity PHBPU (Pharbitis purpurea): 100%
herbicidal activity HORMU (Hordeum murinum): 100%
herbicidal action AVEFA (Avena fatua; post-emergence, dosage 80 g/ha): 100%
herbicidal activity STEME (Stellaria media): 100%
herbicidal action ABUTH (Abutilon theophrasti; post-emergence, dosage 80 g/ha): 100%

CCn1nnnc1NC(=O)c1ccc(I)c(C[S+](C)[O-])c1Cl (stereo not shown) [Example 2-363]
herbicidal activity PHBPU (Pharbitis purpurea): 80%
herbicidal activity HORMU (Hordeum murinum): 100%
herbicidal action AVEFA (Avena fatua; Dosage 80 g/ha): 90
herbicidal activity STEME (Stellaria media): 100%
herbicidal action ABUTH (Abutilon theophrasti; Dosage 80 g/ha): 100

CCCn1nnnc1NC(=O)c1ccc(C(F)(F)F)c(C[S+](C)[O-])c1SC (stereo not shown) [Example 3-162]
herbicidal activity PHBPU (Pharbitis purpurea): 90%
herbicidal activity HORMU (Hordeum murinum): 100%
herbicidal action AVEFA (Avena fatua; post-emergence, dosage 80 g/ha): 90%
herbicidal activity STEME (Stellaria media): 100%
herbicidal action ABUTH (Abutilon theophrasti; post-emergence, dosage 80 g/ha): 100%

CCCn1nnnc1NC(=O)c1ccc(C(F)(F)F)c(CS(C)(=O)=O)c1SC [Example 3-163]
herbicidal activity PHBPU (Pharbitis purpurea): 80%
herbicidal activity HORMU (Hordeum murinum): 90%
herbicidal action AVEFA (Avena fatua; Dosage 80 g/ha): 90
herbicidal activity STEME (Stellaria media): 100%
herbicidal action ABUTH (Abutilon theophrasti; Dosage 80 g/ha): 100

C=CCSCc1c(C(F)(F)F)ccc(C(=O)Nc2nnnn2CCC)c1Cl [Example 3-308]
herbicidal activity PHBPU (Pharbitis purpurea): 100%
herbicidal activity HORMU (Hordeum murinum): 80%
herbicidal action AVEFA (Avena fatua; Dosage 80 g/ha): 100
herbicidal action CYPES (Cyperus esculentus; Dosage 80 g/ha): 90
herbicidal activity STEME (Stellaria media): 100%
herbicidal action ABUTH (Abutilon theophrasti; Dosage 80 g/ha): 100

CCCn1nnnc1NC(=O)c1ccc(C(F)(F)F)c(CSCC2CC2)c1Cl [Example 3-314]
herbicidal activity PHBPU (Pharbitis purpurea): 80%
herbicidal activity HORMU (Hordeum murinum): 90%
herbicidal action AVEFA (Avena fatua; post-emergence, dosage 80 g/ha): 100%
herbicidal action CYPES (Cyperus esculentus; post-emergence, dosage 80 g/ha): 80%
herbicidal activity STEME (Stellaria media): 100%
herbicidal action ABUTH (Abutilon theophrasti; post-emergence, dosage 80 g/ha): 100%

CCCn1nnnc1NC(=O)c1ccc(C(F)F)c(CS(=O)(=O)CC)c1Cl [Example 3-325]
herbicidal activity PHBPU (Pharbitis purpurea): 100%
herbicidal activity HORMU (Hordeum murinum): 100%
herbicidal action AVEFA (Avena fatua; Dosage 80 g/ha): 100
herbicidal action CYPES (Cyperus esculentus; Dosage 80 g/ha): 90
herbicidal activity STEME (Stellaria media): 100%
herbicidal action ABUTH (Abutilon theophrasti; Dosage 80 g/ha): 100
